Source: patent US20080241081A1, “AMIDE COMPOUND OR SALT THEREOF, AND BIOFILM REMOVER CONTAINING THE SAME” (priority 2006, published 2008)

Columns and labels:
[1] = tested on: biofilm formed by Pseudomonas aeruginosa (gfp expression PAO1-strain); assay: Evaluation test for removing biofilms formed by Pseudomonas aeruginosa (flow cell system, fluorescence confocal microscope); format: cell-based; settings: test liquid 100 μM compound; for state of deposited biofilm observed over time: flow 200 μL per minute, observed after 3, 4, 5, 6, 7 and 10 days, compared with DMSO control test liquid; for biofilm removal effect (conclusion): flow cell system, up to 10 days
Protocol: Each of the amide compounds (Compound 1a-1, 1a-2, 1b-1 and 1c-1) produced in Production Examples 1 to 4 was evaluated for its biofilm removal effect, using the flow cell system shown in FIG. 1.
A culture medium bottle (1), a peristaltic pump (2), a glass cell (4) and a waste fluid bottle (5) are connected via a silicon tube (6) so that a culture medium (9) is supplied to the glass cell from the culture medium bottle (1) using the peristaltic pump (2). The system includes an air removal section (3) between the peristaltic pump (2) and a turncock (7a), for removing the entrained air. All tools in the flow cell system are sterilized using gamma-rays or an autoclave.
As specifically described later, the effect for removing biofilms is examined in the following manner. Bacteria are cultured in a glass cell (4) to grow a biofilm on the inner wall of the cell, and a test liquid containing one of the amide compounds is applied to the biofilm. Then the condition of the biofilm is observed to evaluate the biofilm-removing effect of the compound using a fluorescence confocal microscope (Leica TCS SP2: product of Leica).
The bacteria was prepared by inserting a pTdk-LVAgfp plasmid into a Pseudomonas aeruginosa PAO1-strain using the electroportion method so that the Pseudomonas aeruginosa PAO1-strain is transformed to express Green Fluorescent Protein (hereinafter referred to as “gfp expression PAO1-strain”) (see Teresa R. et al., Applied and Environmental Microbiology, April 2001, p. 1865-1873).
A 30 mM glucose-containing FAB culture medium was used for preincubation, and a 0.3 mM glucose-containing FAB culture medium was used for main cultivation.
The glucose-containing FAB culture medium was prepared by adding 200 μg/mL of carbenicillin to an aqueous solution containing 30 mM glucose or 0.3 mM glucose, 15 mM ammonium sulfate, 33.7 mM disodium hydrogenphosphate, 22.1 mM dipotassium hydrogenphosphate, 51.7 mM sodium chloride, 0.47 mM magnesium chloride, 0.08 mM calcium chloride and the following 0.1% trace metal solution.
An aqueous solution containing 1.16 mM calcium sulfate dihydrate, 0.72 mM iron sulfate heptahydrate, 0.08 mM manganous sulfate monohydrate, 0.08 mM copper sulfate pentahydrate, 0.07 mM zinc sulfate heptahydrate, 0.04 mM cobalt sulfate heptahydrate, 0.04 mM […], and 0.08 mM boric acid.
A gfp expression PAO1-strain was inoculated in a 30 mM glucose-containing FAB culture medium, and was subjected to shake culture at 37° C. in an isothermal tank overnight. The obtained overnight culture liquid was diluted by a 30 mM glucose-containing FAB culture medium to OD590=0.1. […]

[2] = tested on: biofilm formed by Porphyromonas gingivalis 381-strain; assay: Evaluation test for removing biofilms formed by periodontitis pathogenic bacteria (flow cell system, optical microscope); format: cell-based; settings: same experiment as Experiment Example 1, Porphyromonas gingivalis 381-strain, 10 days
Protocol: The same experiment as in Experiment Example 1 was conducted except that periodontitis pathogenic bacteria Porphyromonas gingivalis 381-strain (clinical bacteria) was used in place of Pseudomonas aeruginosa PAO1-strain. […] The gradual exfoliation of the deposited biofilm from the cell wall, and the flowing flakes of biofilm exfoliation in the cell were also visually observed.

autoinducer = settings: as taught by Patent Document 1 (JP 2006-512290); cited from earlier work

Structure (SMILES) | state of deposited biofilm observed over time [1] | state of biofilm (removal) [2] | biofilm removal effect (conclusion) [1] | autoinducer agonist activity (autoinducer)
CCCCCCCCCC(=O)CC(=O)Nc1ccccc1O [Comparative Compound 1, reference compound] | a similar biofilm formation to that of the control test using the control test liquid was observed | – | – | –
CCCCCCCCCC(=O)CC(=O)NN1CCCC1 [Compound 1a-1, N-(pyrrolidin-1-yl)-3-oxododecanoyl amide] | – | nearly the entire biofilm was removed in 10 days | effective for removing deposited biofilms | –
CCCCCCCCCC(=O)CC(=O)NN1CCCCC1 [Compound 1a-2, N-(piperidine-1-yl)-3-oxododecanoyl amide] | gradual disappearance of the deposited biofilm with time was observed | nearly the entire biofilm was removed in 10 days | effective for removing deposited biofilms | –
CCCCCCCCCC(=O)CC(=O)NN1CCCCC1 [drawing 7] | – | – | – | exhibits autoinducer agonist activity
